Converted amounts (≈) assume the structure as drawn.

Format in all cases: cell-based
The subject of test [1] is PC-3 (prostate adenocarcinoma). Description: In vitro cytotoxicity, sulforhodamine B (SRB) method, PC-3. Particulars: Homo sapiens; PC-3, SRB method; read-out: cytotoxicity (ED50) PC-3. The essentials:
(§1)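 Cells grown in RPMI 1640 with 10% FCS at 37 °C, 5% CO2 were exposed to compounds at 30, 10, 3, 1 and 0.3 μg/ml final, with DMSO below 0.5%. Cytotoxicity was read by the standard NCI sulforhodamine B protein-staining method.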
In general terms: The SRB assay estimates cell density from bound dye.

Test [2] concerns HCT15 (colon adenocarcinoma). Description: In vitro cytotoxicity, sulforhodamine B (SRB) method, HCT15. The following applies: Homo sapiens; HCT-15, SRB method; read-out: cytotoxicity (ED50) HCT-15. The method in brief:
as §1

Test [3] has as its system A-549 (lung carcinoma). Description: In vitro cytotoxicity, sulforhodamine B (SRB) method, A-549. The following applies: Homo sapiens, A549; A-549, SRB method; read-out: cytotoxicity (ED50) A-549. The essentials: as §1

`O=C(/C=C/c1ccc(O)c(O)c1)c1cccc(NS(=O)(=O)c2ccc(O)cc2)c1` [Compound 52, 3′-(p-hydroxybenzenesulfonylamino)-3,4-dihydroxychalcone]: the IC50 came out at 5 µg/mL (≈ 12.2 µM) in test [1], 7 µg/mL (≈ 17 µM) in test [2] and 6 µg/mL (≈ 14.6 µM) in test [3].
On the same counts, the results for `O=C(/C=C/c1ccc(O)cc1O)c1cccc(NS(=O)(=O)c2ccc(O)cc2)c1` [Compound 54, 3′-(p-hydroxybenzenesulfonylamino)-2,4-dihydroxychalcone] are 9 µg/mL (≈ 21.9 µM), 7 µg/mL (≈ 17 µM) and 9 µg/mL (≈ 21.9 µM).
On the same counts, the results for `O=C(/C=C/c1cc(O)ccc1O)c1ccc(OS(=O)(=O)c2cccc(O)c2)cc1` [Compound 97, 4′-(m-hydroxybenzenesulfonate)-2,5-dihydroxychalcone] are 8 µg/mL (≈ 19.4 µM), 11 µg/mL (≈ 26.7 µM) and 6 µg/mL (≈ 14.5 µM).
For the compound `O=C(/C=C/c1ccc(O)cc1)c1ccc(OS(=O)(=O)c2ccc(F)cc2)cc1` [Compound 36, 4′-(p-fluorobenzenesulfonate)-4-hydroxychalcone], the IC50 was 39 µg/mL (≈ 97.9 µM) in test [1], 48 µg/mL (≈ 120 µM) in test [2] and 41 µg/mL (≈ 103 µM) in test [3].
On the same counts, the results for `Nc1ccccc1S(=O)(=O)Nc1ccc(C(=O)/C=C/c2ccc(O)c(O)c2)cc1` [Compound 80, 4′-(o-aminobenzensulfonylamino)-3,4-dihydroxychalcone] are 23 µg/mL (≈ 56 µM), 13 µg/mL (≈ 31.7 µM) and 11 µg/mL (≈ 26.8 µM).
On the same counts, the results for `CS(=O)(=O)Oc1ccc(C(=O)/C=C/c2ccc(O)cc2)cc1` [Compound 41, 4′-(methanesulfonate)-4-hydroxychalcone] are 48 µg/mL, 42 µg/mL and 49 µg/mL.
On the same counts, the results for `Nc1ccccc1S(=O)(=O)Nc1ccc(C(=O)/C=C/c2ccc(O)cc2)cc1` [Compound 32, 4′-(o-aminobenzensulfonylamino)-4-hydroxychalcone] are 41 µg/mL (≈ 104 µM), 47 µg/mL (≈ 119 µM) and 45 µg/mL (≈ 114 µM).
Regarding `O=C(/C=C/c1ccc(O)cc1O)c1ccc(OS(=O)(=O)c2cccc(O)c2)cc1` [Compound 96, 4′-(m-hydroxybenzenesulfonate)-2,4-dihydroxychalcone], the values for the IC50 in test [1], in test [2] and in test [3] were 24 µg/mL (≈ 58.2 µM), 8 µg/mL (≈ 19.4 µM) and 7 µg/mL (≈ 17 µM), respectively.
On the same counts, the results for `O=C(/C=C/c1cccc(O)c1)c1cccc(NS(=O)(=O)c2ccc(O)cc2)c1` [Compound 10, 3′-(p-hydroxybenzenesulfonylamino)-3-hydroxychalcone] are 32 µg/mL (≈ 80.9 µM), 30 µg/mL (≈ 75.9 µM) and 30 µg/mL (≈ 75.9 µM).

These data come from patent US9072698B2, “Method for screening anti-cancer compounds inhibiting function of TM4SF5 and anti-cancer composition containing chalcone compounds” (Seoul National University Industry Foundation, priority 2006, dated 2015).
